Series [1] is described as follows: Solubility in commonly used solvents for oral administration. It counts as physicochemical.
Series [2] relates to S. aureus ATCC29213. The series is described as follows: IM032 staphyloxanthin production inhibition. It counts as cell-based. The conditions noted are these: Staphylococcus aureus, ATCC 29213 / MSSA. The method, then:
(§1) This study aimed to evaluate IM032 for its in vitro efficacy to inhibit the production of staphyloxanthin in different strains of S. aureus.
(§2) The negative control was dimethyl sulfoxide (DMSO) which was used to prepare stock solutions and dilutions; positive control in this test was S. aureus strain FPR3757 treated with IM032.
(§3) The test item was dissolved at 44.9 mg/mL in DMSO at 37° C., aliquoted into several tubes, and stored at −20° C. until use. On the day of testing, a stock solution was serially diluted to testing concentrations with DMSO. All solutions were vortexed and mixed with a pipette to achieve homogeneity immediately before dilution. A correction factor for purity was not applied to the test item preparations.
(§4) Each test item solution (6 μL) was combined with 0.6 mL of S. aureus culture in brain heart infusion broth (CFU per well=1×10^7). 12-wells repeats were performed for each concentration in 96-well 2-mL plates. The plates were then incubated in a shaker at 37° C., 250 rpm for 24 hours. The bacteria were centrifuged at 4,000 rpm for 10 min. Next, the bacteria from 4-wells were combined and were washed twice with PBS. Staphyloxanthin was extracted with 300 μL of methanol in a water bath at 60° C. for 1 hour. After centrifugation, 100 μL of supernatant was transferred to a 96-well cell culture plate and OD450 was measured. The relative pigment production at each tested concentration was calculated as follows: […]
(§5) The IC50 for each test was determined based on the calculated inhibition ratio from above with Prism 6.0 by employing a non-linear regression (four parameters) fitting method with assigned bottom and top at 0.05 and 0.95 respectively. The IC50 presented is the best-fit value.
(§6) S. aureus strains (ATCC29213, HG003, Mu3, SH1000, and COL) were treated with IM032 at final concentrations of 4,000, 1,000, 250, 63, 16, 4 and 1 nM (FIG. 7A). S. aureus strains (JE2, USA300-3, LAC, ST239III and Newman) were treated with IM032 at final concentrations of 250, 63, 16, 4, 1, 0.2 and 0.06 nM (FIG. 7B). […] The determined IC50 values of the tested strains range from 1.2 to 70 nM (Tables 6 and 7).

Series [3] has as its system S. aureus COL. As to the kind of experiment: IM032 staphyloxanthin production inhibition. It counts as cell-based. The conditions noted are these: Staphylococcus aureus, MRSA. As for the experimental part:
as §1, §2, §3, §4, §5, §6

The subject of series [4] is S. aureus JE2. As to the kind of experiment: IM032 staphyloxanthin production inhibition. The class given is cell-based. The conditions noted are these: Staphylococcus aureus. The method, then:
as §1, §2, §3, §4, §5, §6

The subject of series [5] is S. aureus LAC. The series is described as follows: IM032 staphyloxanthin production inhibition. It counts as cell-based. The conditions noted are these: Staphylococcus aureus. The method, then:
as §1, §2, §3, §4, §5, §6

Series [6] relates to S. aureus Mu3. The series is described as follows: IM032 staphyloxanthin production inhibition. It counts as cell-based. The conditions noted are these: Staphylococcus aureus. As for the experimental part: as §1, §2, §3, §4, §5, §6
Series [7] relates to S. aureus Newman. The series is described as follows: IM032 staphyloxanthin production inhibition. The class given is cell-based. The conditions noted are these: Staphylococcus aureus, MSSA / NEWMAN. The method, then: as §1, §2, §3, §4, §5, §6
The subject of series [8] is S. aureus SH1000. As to the kind of experiment: IM032 staphyloxanthin production inhibition. It counts as cell-based. The conditions noted are these: Staphylococcus aureus, MSSA. As for the experimental part: as §1, §2, §3, §4, §5, §6
Series [9] concerns S. aureus ST239III. The series is described as follows: IM032 staphyloxanthin production inhibition. The conditions noted are these: Staphylococcus aureus, MRSA. The class given is cell-based. The method, then:
as §1, §2, §3, §4, §5, §6

SMILES strings stand for the structures. In brackets after ≈: the same amount, converted by molar mass.

On to `O=C(/C=C/c1ccccc1Br)Nc1ccc(S(=O)(=O)N2CCCCC2)cc1` [NP16-XL-016, 3-(6-bromophenyl)-N-[4-(1-piperidine-1-sulfonyl)phenyl]-acrylamide], for which the solubility in [1] (1:1 Labrasol ALF/PEG300, organic solvent or mixture) is 16.1 mg/mL (≈ 35.8 mM); in [1] (1:1 Labrasol ALF/PEG400, organic solvent or mixture), more than 15 mg/mL; in series [1] (Labrasol ALF, oil or lipid) it was 11.8 mg/mL (≈ 26.3 mM); in series [1] (PEG300, organic solvent or mixture) it was more than 20 mg/mL; in series [1] (PEG400, organic solvent or mixture) it was more than 20 mg/mL. The 50% inhibitory concentration (IC50) in series [2] (Table 6) was 18 nM; in series [2] (Table 8), 30 ± 5 nM; in series [3] (Table 6, MRSA (HA)) it was 1.2 nM; in series [3] (Table 8, HA-MRSA) it was 0.9 ± 1 nM; in series [4] (/ USA300), 37.7 ± 4 nM; in series [4] (MRSA) it was 26 nM. In addition, the IC50 turned out to be 27 nM in [5] (MRSA); 43.6 ± 5 nM in series [5] (MRSA / USA300); 1.8 nM in [6] (MU3); 2.6 ± 1 nM in series [6] (VISA); 21 nM in series [7] (Table 7); 23.7 ± 1 nM in series [7] (Table 8). Also, the IC50 in series [8] (Table 6) came to 70 nM; in series [8] (Table 8) it was 70.5 ± 6 nM; in series [9] (Table 7, ST239III, MRSA (HA)) it was 19 nM; in series [9] (Table 8, Clinical isolate ST239III, HA-MRSA) it was 16.3 ± 8 nM.

In general, solubility refers to how much of the substance goes into solution per volume. As usually defined, the IC50 is the point on the concentration scale where inhibition reaches its midpoint.

For the origin of these results see US11040949B2, “Compounds affecting pigment production and methods for treatment of bacterial diseases” (Versitech Limited, priority 2017, dated 2021).
